Literature values as cited in paper PMC6099735, “Piplartine Analogues and Cytotoxic Evaluation against Glioblastoma” (Molecules : A Journal of Synthetic Chemistry and Natural …, 2018).

Legend:
Parameters in all cases: method as in PMID 25920262
Conditions in all cases: MTT test; cited from earlier work
[1] = system: U87MG (human glioblastoma)
A2258 (human melanoma) = system: A2258 (human melanoma)
[2] = system: HL-60 (human leukemic cell)
[3] = system: BF16F10-Nex2 (murine melanoma)
[4] = system: HCT (human colon carcinoma)
[5] = system: HeLa (human cervical carcinoma)

Measured: IC50

COc1cc(/C=C/C(=O)N2CCC=CC2=O)cc(OC)c1OC [Compound 1, Piplartine]
> 200 µg/mL: all assays above
